Earlier results, collected in US9585896B2, “Compositions comprising omega-3 fatty acids and vitamin D for psoriasis, and methods and uses thereof” (PRONOVA BIOPHARMA NORGE AS, priority 2012, dated 2017).

Tested on: patients with psoriasis
Conditions: over a 12-week period, versus high-dose etanercept

Ustekinumab: FDA-approved IL-12/IL-23 blocker targeting the common domain p40
efficacy in patients with psoriasis: higher efficacy than high-dose etanercept
